# Measurements reported in ChEMBL document CHEMBL1131424 (J Med Chem, 1998).
# Molecular target: T1, 5-hydroxytryptamine receptor 1A (Rattus norvegicus, UniProt P19327)
# T1 sequence (P19327 whole entry): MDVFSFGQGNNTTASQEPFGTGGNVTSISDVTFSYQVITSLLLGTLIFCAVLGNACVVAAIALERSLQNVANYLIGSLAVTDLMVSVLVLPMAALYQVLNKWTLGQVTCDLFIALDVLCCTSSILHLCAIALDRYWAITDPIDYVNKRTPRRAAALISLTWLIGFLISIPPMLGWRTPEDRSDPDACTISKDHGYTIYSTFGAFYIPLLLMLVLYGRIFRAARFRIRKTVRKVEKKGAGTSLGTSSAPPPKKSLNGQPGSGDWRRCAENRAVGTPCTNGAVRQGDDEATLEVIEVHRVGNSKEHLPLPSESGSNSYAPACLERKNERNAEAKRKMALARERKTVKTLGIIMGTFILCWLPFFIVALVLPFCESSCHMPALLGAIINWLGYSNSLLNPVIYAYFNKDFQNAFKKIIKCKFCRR
# Assay: Binding affinity for rat cortex 5-hydroxytryptamine 1A receptor, by displacement of 0.2 nM [3H]8-OH-DPAT radioligand
row,Structure (SMILES),Ki [nM]
1,Cc1cccc(C(=O)N2CCC(CNCc3cccc(-n4cccn4)n3)CC2)c1,3.47
2,O=C(c1ccc(Cl)cc1)N1CCC(CNCc2cccc(-n3cccn3)n2)CC1,49
3,O=C(c1ccc(Cl)c(Cl)c1)N1CCC(CNCc2cccc(Cl)n2)CC1,4.57
4,N#Cc1cccc(C(=O)N2CCC(CNCc3cccc(-n4cccn4)n3)CC2)c1,17.8
5,N#Cc1cccc(CNCC2CCN(C(=O)c3ccc(Cl)c(Cl)c3)CC2)n1,50.1
6,O=C(c1ccc(Cl)c(Cl)c1)N1CCC(CNCc2cccc(F)n2)CC1,8.91
7,O=C(c1ccccc1)N1CCC(CNCc2cccc(-n3cccn3)n2)CC1,33.1
8,O=C(c1ccc(Cl)c(Cl)c1)N1CCC(CNCc2cccc(-n3ccnc3)n2)CC1,7.41
9,O=C(c1ccc(Cl)c(Cl)c1)N1CCC(CNCc2cccc(N3CCCC3)n2)CC1,1.58
10,COc1cccc(CNCC2CCN(C(=O)c3ccc(Cl)c(Cl)c3)CC2)n1,3.47
11,CC(C)c1cccc(CNCC2CCN(C(=O)c3ccc(Cl)c(Cl)c3)CC2)n1,0.631
12,Cc1cccc(CNCC2CCN(C(=O)c3ccc(Cl)c(Cl)c3)CC2)n1,4.07
13,O=C(c1ccc(Cl)c(Cl)c1)N1CCC(CNCc2cc(-n3cccn3)ccn2)CC1,646
14,O=C(c1ccc(Cl)c(Cl)c1)N1CCC(CNCCc2cccc(-n3cccn3)n2)CC1,3.55
15,CCOc1cccc(C(=O)N2CCC(CNCc3cccc(-n4cccn4)n3)CC2)c1,10.7
16,O=C(c1ccccc1Cl)N1CCC(CNCc2cccc(-n3cccn3)n2)CC1,132
17,O=S(=O)(c1ccc(Cl)c(Cl)c1)N1CCC(CNCc2cccc(-n3cccn3)n2)CC1,200
18,Clc1ccc(CN2CCC(CNCc3cccc(-n4cccn4)n3)CC2)cc1Cl,17.8
19,O=C(c1ccc(F)c(Cl)c1)N1CCC(CNCc2cccc(-n3cccn3)n2)CC1,1.55
20,NC(=O)c1cccc(CNCC2CCN(C(=O)c3ccc(Cl)c(Cl)c3)CC2)n1,46.8
21,O=C(c1ccc(Cl)c(Cl)c1)N1CCC(CNCCc2ccncc2)CC1,> 1000
22,O=C(NCC#CCNCc1cccc(-n2cccn2)n1)c1ccc(Cl)c(Cl)c1,245
23,CN(CCCCNCc1cccc(-n2cccn2)n1)C(=O)c1ccccc1,170

row,Structure (SMILES),Ki [nM]
1,Cn1c(=O)cnn(CCCCNCc2cccc(-n3cccn3)n2)c1=O,110
2,CCCN(C)c1cccc(CNCC2CCN(C(=O)c3ccc(Cl)c(Cl)c3)CC2)n1,11.7
3,CCCN(CCC)Cc1cccc(-n2cccn2)n1,> 10000
4,CCCCOc1cccc(CNCC2CCN(C(=O)c3ccc(Cl)c(Cl)c3)CC2)n1,18.6
5,O=C(C1CCCCC1)N1CCC(CNCc2cccc(-n3cccn3)n2)CC1,29.5
6,COc1ccc2[nH]cc(CCNCc3cccc(-n4cccn4)n3)c2c1,661
7,O=C(c1ccc(Cl)c(Cl)c1)N1CCC(CNCc2cccc(-n3cccc3)n2)CC1,4.27
8,O=C(c1cccc(Cl)c1)N1CCC(CNCc2cccc(-n3cccn3)n2)CC1,2.29
9,CN(C)c1cccc(CNCC2CCN(C(=O)c3ccc(Cl)c(Cl)c3)CC2)c1,75.9
10,COC(=O)c1ccc(C(=O)N2CCC(CNCc3cccc(-n4cccn4)n3)CC2)cc1Cl,166
11,O=C(c1ccc(Cl)c(Cl)c1)N1CCC(CNCc2cccc(F)c2)CC1,14.8
12,O=C(c1ccc(Cl)c(Cl)c1)N1CCC(CNCc2cccc(-n3cccc3)c2)CC1,295
13,Cc1cccc(C(=O)NCCCCNCc2cccc(-n3cccn3)n2)c1,14.1
14,O=C(c1cccc(C(F)(F)F)c1)N1CCC(CNCc2cccc(-n3cccn3)n2)CC1,3.55
15,O=C(c1ccc(Cl)c(Cl)c1)N1CCC(CNCc2cccc(-c3ncc[nH]3)n2)CC1,2.69
16,O=C(c1ccc(Cl)c(Cl)c1)N1CCC(CNCc2cccc(-n3cccn3)n2)CC1,1.66
17,O=C(c1ccc(Cl)c(Cl)c1)N1CCC(CNCc2cccc(-c3cnco3)n2)CC1,0.933
18,O=C(c1ccc(Cl)c(Cl)c1)N1CCC(CNCc2cccc(N3CCC3)n2)CC1,0.372
19,O=C(c1cc(Cl)cc(Cl)c1)N1CCC(CNCc2cccc(-n3cccn3)n2)CC1,26.3
20,O=C(c1ccc(Cl)c(Cl)c1)N1CCC(CNCCc2cccc(F)n2)CC1,3.16
21,O=C(c1ccc(Cl)c(Cl)c1)N1CCC(CNCCCc2ccccn2)CC1,42.7
22,O=C(N1CCC(CNCc2cccc(-n3cccn3)n2)CC1)C12C[C@H]3C[C@@H](C1)C[C@@H](C2)C3,13.2
23,O=C(c1ccc(Cl)c(Cl)c1)N1CCC(CNCCc2ccccn2)CC1,1.2

row,Structure (SMILES),Ki [nM]
1,O=C(NCCNCc1cccc(-n2cccn2)n1)C12C[C@H]3C[C@@H](C1)C[C@@H](C2)C3,27.5
2,COc1ccc(C(=O)N2CCC(CNCc3cccc(-n4cccn4)n3)CC2)cc1Cl,9.12
3,O=C(c1ccc(Cl)c(Cl)c1)N1CCC(CNCc2cc(Cl)ccn2)CC1,9.12
4,Cc1ccc(C(=O)N2CCC(CNCc3cccc(-n4cccn4)n3)CC2)cc1Cl,1.41
5,O=C(c1ccc(Cl)c(Cl)c1)N1CCC(CNCc2cccc(-c3ccccc3)n2)CC1,7.41
6,O=C(c1ccc(Cl)c(Cl)c1)N1CCCC(CNCc2cccc(-n3cccn3)n2)C1 (configuration not stated),407
7,O=C(c1cccc(F)c1)N1CCC(CNCc2cccc(-n3cccn3)n2)CC1,13.5
8,CSc1cccc(CNCC2CCN(C(=O)c3ccc(Cl)c(Cl)c3)CC2)n1,2.57
9,C[S+]([O-])c1cccc(CNCC2CCN(C(=O)c3ccc(Cl)c(Cl)c3)CC2)n1 (configuration not stated),46.8
10,O=C(c1ccc(Cl)c(Cl)c1)N1CCC(CNCc2cccc(-c3ccc[nH]3)n2)CC1,6.03
11,O=C(c1ccc(Cl)c(Cl)c1)N1CCC(CNCc2cccc(-c3ccco3)n2)CC1,0.724
12,Fc1ccc(C(CCCNCc2cccc(-n3cccn3)n2)c2ccc(F)cc2)cc1,151
13,O=C(c1cccc(Cl)c1Cl)N1CCC(CNCc2cccc(-n3cccn3)n2)CC1,100
14,O=C(c1ccc(Cl)c(Cl)c1)N1CCC(CNCc2cccc(-c3cccs3)n2)CC1,1.38
15,CN(C)c1cccc(CNCC2CCN(C(=O)c3ccc(Cl)c(Cl)c3)CC2)n1,1.41
16,O=C(c1ccc(Cl)c(Cl)c1)N1CCC(CNCCc2cccnc2)CC1,933
17,O=C(c1ccc(Cl)c(Cl)c1)N1CCC(CNCc2cccnc2)CC1,417
18,CNc1cccc(CNCC2CCN(C(=O)c3ccc(Cl)c(Cl)c3)CC2)n1,1.74
19,O=C(c1ccc(Cl)c(Cl)c1)N1CCC(CNCc2cccc(-c3cc[nH]n3)n2)CC1,0.537
20,O=C(c1ccc(Cl)c(Cl)c1)N1CCC(CNCc2cccc(-c3nccs3)n2)CC1,0.347
21,O=C(c1ccc(Cl)c(Cl)c1)N1CCC(CNCc2ccccn2)CC1,26.3
